Consider five compounds from paper PMC5540273, “Progress towards a public chemogenomic set for protein kinases and a call for contributions” (PLoS ONE, 2017).

Test in all cases: KINOMEscan competition binding
One experiment addresses T1, DCAMKL2 (Homo sapiens, UniProt Q8N568).
T1 sequence (Q8N568 1-766): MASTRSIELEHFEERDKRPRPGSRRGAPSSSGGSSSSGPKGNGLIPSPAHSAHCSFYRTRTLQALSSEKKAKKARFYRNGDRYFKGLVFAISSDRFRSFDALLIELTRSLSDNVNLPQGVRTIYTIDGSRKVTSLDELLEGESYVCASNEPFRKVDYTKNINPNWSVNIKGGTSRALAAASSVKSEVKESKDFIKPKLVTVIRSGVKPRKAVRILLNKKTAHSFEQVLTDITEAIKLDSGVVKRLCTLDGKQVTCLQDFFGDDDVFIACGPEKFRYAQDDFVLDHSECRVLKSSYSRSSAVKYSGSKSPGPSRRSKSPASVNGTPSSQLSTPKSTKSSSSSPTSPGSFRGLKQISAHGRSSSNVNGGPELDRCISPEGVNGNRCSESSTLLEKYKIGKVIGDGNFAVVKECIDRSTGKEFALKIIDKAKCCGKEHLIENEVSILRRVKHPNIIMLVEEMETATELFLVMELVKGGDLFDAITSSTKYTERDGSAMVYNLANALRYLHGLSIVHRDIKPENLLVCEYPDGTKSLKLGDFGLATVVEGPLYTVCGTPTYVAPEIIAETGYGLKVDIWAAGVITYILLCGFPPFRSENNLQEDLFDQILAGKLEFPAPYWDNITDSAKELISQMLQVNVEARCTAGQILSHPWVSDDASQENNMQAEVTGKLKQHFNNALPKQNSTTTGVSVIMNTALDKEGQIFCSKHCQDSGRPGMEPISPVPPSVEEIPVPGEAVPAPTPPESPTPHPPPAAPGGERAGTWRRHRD
The note with it: read-out: %Inh DCAMKL2.

A further experiment concerns the target AKT2 (Homo sapiens, UniProt P31751). The note with it: read-out: %Inh AKT2.
In a further experiment the target is LIMK1 (Homo sapiens, UniProt P53667). The note with it: read-out: %Inh LIMK1.
Sequence of LIMK1 (P53667 whole entry): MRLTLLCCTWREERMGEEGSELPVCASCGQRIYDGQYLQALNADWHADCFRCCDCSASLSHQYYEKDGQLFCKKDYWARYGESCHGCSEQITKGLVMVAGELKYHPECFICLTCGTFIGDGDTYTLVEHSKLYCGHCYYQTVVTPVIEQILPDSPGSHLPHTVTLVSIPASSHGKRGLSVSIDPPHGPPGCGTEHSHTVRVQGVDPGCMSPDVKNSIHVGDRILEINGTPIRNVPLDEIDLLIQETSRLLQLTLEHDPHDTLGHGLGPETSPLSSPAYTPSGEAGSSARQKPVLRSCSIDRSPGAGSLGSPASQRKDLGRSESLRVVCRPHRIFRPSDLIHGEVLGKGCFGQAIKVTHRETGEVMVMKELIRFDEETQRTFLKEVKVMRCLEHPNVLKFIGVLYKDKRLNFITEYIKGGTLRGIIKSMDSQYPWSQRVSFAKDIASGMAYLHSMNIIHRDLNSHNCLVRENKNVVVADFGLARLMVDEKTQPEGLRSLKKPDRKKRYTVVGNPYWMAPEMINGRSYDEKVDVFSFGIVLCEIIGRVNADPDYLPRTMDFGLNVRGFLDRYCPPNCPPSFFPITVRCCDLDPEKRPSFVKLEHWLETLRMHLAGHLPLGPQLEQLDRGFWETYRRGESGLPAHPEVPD
Another experiment addresses T2, MAP3K15 (Homo sapiens, UniProt Q6ZN16).
T2 sequence (Q6ZN16 1-1313): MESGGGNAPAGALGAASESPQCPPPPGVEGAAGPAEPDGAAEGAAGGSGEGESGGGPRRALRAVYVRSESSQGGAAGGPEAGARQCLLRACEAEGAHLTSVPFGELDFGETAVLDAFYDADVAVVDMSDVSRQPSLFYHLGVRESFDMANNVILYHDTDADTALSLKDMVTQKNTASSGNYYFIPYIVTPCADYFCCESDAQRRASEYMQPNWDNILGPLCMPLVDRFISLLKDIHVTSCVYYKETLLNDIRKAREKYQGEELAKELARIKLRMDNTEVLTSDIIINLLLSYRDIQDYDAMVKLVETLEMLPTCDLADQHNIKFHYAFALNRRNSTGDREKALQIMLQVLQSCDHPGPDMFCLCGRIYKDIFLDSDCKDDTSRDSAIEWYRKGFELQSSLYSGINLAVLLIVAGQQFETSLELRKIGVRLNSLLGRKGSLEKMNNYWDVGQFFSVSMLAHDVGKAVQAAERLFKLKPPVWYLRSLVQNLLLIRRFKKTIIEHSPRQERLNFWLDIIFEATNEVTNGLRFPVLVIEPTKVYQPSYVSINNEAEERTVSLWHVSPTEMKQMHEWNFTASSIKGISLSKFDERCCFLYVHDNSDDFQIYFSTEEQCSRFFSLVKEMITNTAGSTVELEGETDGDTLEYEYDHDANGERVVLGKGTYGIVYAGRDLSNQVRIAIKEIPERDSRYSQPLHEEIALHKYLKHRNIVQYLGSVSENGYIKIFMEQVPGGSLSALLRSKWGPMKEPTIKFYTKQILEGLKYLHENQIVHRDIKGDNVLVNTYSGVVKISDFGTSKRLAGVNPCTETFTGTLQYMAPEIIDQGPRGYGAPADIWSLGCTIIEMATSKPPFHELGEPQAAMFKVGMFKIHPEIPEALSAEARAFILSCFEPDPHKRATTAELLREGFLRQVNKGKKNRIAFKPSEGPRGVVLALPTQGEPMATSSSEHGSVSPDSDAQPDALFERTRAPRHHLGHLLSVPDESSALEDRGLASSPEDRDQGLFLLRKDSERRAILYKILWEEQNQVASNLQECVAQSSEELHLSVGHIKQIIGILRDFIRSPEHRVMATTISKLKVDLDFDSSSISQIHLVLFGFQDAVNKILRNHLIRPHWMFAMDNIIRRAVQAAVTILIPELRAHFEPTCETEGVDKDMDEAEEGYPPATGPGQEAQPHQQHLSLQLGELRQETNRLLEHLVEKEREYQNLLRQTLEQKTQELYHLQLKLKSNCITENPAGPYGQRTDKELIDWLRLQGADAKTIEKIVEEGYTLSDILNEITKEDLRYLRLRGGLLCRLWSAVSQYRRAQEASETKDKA
The settings on record: read-out: %Inh MAP3K15.

The structures appear in SMILES notation.

Sequence of AKT2 (P31751 whole entry): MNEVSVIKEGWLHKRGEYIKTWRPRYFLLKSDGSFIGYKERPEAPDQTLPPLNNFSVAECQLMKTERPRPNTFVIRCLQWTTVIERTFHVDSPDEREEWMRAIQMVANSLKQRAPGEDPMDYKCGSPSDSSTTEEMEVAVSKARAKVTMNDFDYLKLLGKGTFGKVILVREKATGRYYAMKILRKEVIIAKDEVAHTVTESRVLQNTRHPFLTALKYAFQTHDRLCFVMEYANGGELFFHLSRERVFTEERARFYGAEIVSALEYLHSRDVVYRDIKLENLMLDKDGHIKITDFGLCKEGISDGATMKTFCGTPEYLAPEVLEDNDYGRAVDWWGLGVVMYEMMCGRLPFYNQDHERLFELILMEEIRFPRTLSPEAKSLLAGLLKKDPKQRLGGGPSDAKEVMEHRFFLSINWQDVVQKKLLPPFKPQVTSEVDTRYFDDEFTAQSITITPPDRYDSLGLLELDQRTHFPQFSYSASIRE

For `COc1cccc(OC)c1C(=O)Nc1cccc(-c2nn3ccccc3c2-c2ccnc(Nc3cccc(F)c3)n2)c1` [UNC10225310A], the inhibition at 1 µM amounted to 0% at DCAMKL2, 0% on AKT2, 31% on LIMK1 and 0% at MAP3K15.
Regarding `O=c1cc(N2CCOCC2)nc2n(Cc3cccc(Cl)c3Cl)c(C3CC3)nn12` [UNC10225469A], the inhibition at 1 µM on DCAMKL2 is 7%; on AKT2, 0%; at LIMK1, 9%; at MAP3K15, 0%.
Take `Cn1cc(-c2cnc(N)c3c(-c4ccc5c(c4)CCN5C(=O)Cc4ccccc4)csc23)cn1` [UNC10225012A]: the inhibition at 1 µM on DCAMKL2 turned out to be 0%; at AKT2, 0%; on LIMK1 it was 49%; at MAP3K15, 35%.
On to `CS(=O)(=O)Cc1ccc(Nc2nccc(-c3c(-c4cccc(NC(=O)C5CCCCC5)c4)nn4ncccc34)n2)cc1` [UNC10225159A], for which the inhibition at 1 µM amounted to 15% on DCAMKL2, 4% on AKT2, 22% on LIMK1 and 38% on MAP3K15.
Regarding `Cc1ccc(NC(=O)Nc2cccc(C(F)(F)F)c2)cc1` [UNC10225187A], the inhibition at 1 µM on DCAMKL2 was 0%; at AKT2, 3%; on LIMK1, 0%; on MAP3K15, 0%.
